Data taken from patent US20070231828A1, “Methods of predicting behavior of cancers” (Johns Hopkins University, priority 2003, published 2007).
Entries after “also recorded” stand apart in the source; their conditions may differ. Read-outs that look alike come from different tables or passages of the source.

Assays:
prostate epithelium = test: Prostate regeneration in castrated mice; format: in vivo, C57B16/J mice; settings: castrates
From the text: Prostates were collected, weighed, and processed for histology.

22RV1 xenograft tumors = settings: 50 mg/kg daily s.c.
Protocol: (§1) CWR22RV1 (n=14) and PC3tumor xenografts (n=20) were grown by injecting 0.1 ml of Hanks Balanced Salt Solution and Matrigel (1:1) (Beckton Dickinson, Franklin Lakes, N.J.) containing 2.5×10^6 cells subcutaneously at each of two locations (right anterior and posterior flank) per athymic mouse. […] Animals were euthanized and tumors harvested for Ki-67 staining. […] Mice were observed daily for distress and experiments were carried out according to approved institutional protocols. Individual tumor volumes were plotted and regression curves were generated using analysis software to determine individual tumor growth rates.

PC3 xenograft tumors = settings: 50 mg/kg daily s.c.
Protocol: as §1

[1] = tested on: AT2.1 subcutaneous tumors; test: Dunning rat prostate carcinoma xenografts in athymic mice; format: in vivo; settings: s.c.
[2] = tested on: AT6.3 subcutaneous tumors
[3] = tested on: human prostate cancer cell lines; test: Quantitative RT-PCR of transcripts; format: cell-based
From the text: (§2) Amplification of Hh pathway components was normalized in qRT-PCR experiments to that of endogenous phosphoglycerate kinase in each sample. Oligonucleotide primers used in quantitative reeal-time and conventional amplification of reverse transcribed mRNA (RT-PCR) are shown in Table 4.

AT6.3 cells [4] = test: Quantitative RT-PCR of transcripts; format: cell-based, rat
From the text: as §2

22RV1 cells = test: In vitro Matrigel invasion assay; format: cell-based, human
From the text: (§3) Cells reaching the lower chamber were counted according to the manufacturer's protocol. Results were normalized to viable cell mass assayed as described above.

22RV1-GLI cells = test: In vitro Matrigel invasion assay; format: cell-based, human
From the text: as §3

AT2.1-GLI cells = test: In vitro Matrigel invasion assay; format: cell-based, rat; settings: 3 μM pre-treatment 24 hours
From the text: as §3

AT6.3 cells [5] = test: In vitro Matrigel invasion assay; format: cell-based, rat; settings: 3 μM pre-treatment 24 hours, normalized to viable cell mass
From the text: as §3

C[C@]12CCC(=O)C[C@@H]1CC[C@@H]1[C@@H]2CC[C@]2(C)[C@@H](O)CC[C@@H]12 [dihydrotestosterone]
prostate regeneration (prostate epithelium; 50 mg/kg/d for ten days after seven days of androgen withdrawal): re-growth of prostate of nearly normal size

CC1=C2C[C@H]3[C@@H](CC=C4C[C@@H](O)CC[C@@]43C)[C@@H]2CC[C@]12O[C@@H]1C[C@H](C)CN[C@H]1[C@H]2C [cyclopamine]
time to complete regression of the tumors (22RV1 xenograft tumors): 20 to 24 days | time to complete regression of the tumors (PC3 xenograft tumors): 20 to 24 days | Median Survival [1]: No tumors | Growth rate (% tumor volume/day) ([2]; i.p. 10 mg/kg): 9.2 ± 2.4 % tumor volume/day | Median Survival ([2]; i.p. 10 mg/kg/day): 19 days | metastasis ([2]; i.p. 10 mg/kg/day): inhibited metastasis | time by which all animals were dead ([2]; i.p. 10 mg/kg/day): ≤ 26 days | Growth rate (% tumor volume/day) ([2]; i.p. 50 mg/kg): 4.9 ± 1.0 % tumor volume/day | Median Survival ([2]; i.p. 50 mg/kg): No death | metastasis ([2]; i.p. 50 mg/kg/day): blocked metastasis | death ([2]; i.p. 50 mg/kg/day, 50 day treatment period): prevented death | Median Survival ([2]; s.c. 50 mg/kg): No tumors | expression of transcripts encoding c-myc [3]: reduced expression | expression of transcripts encoding cyclin D1 [3]: reduced expression | transcription of the gene encoding Nestin [3]: suppressed transcription | expression of E-cadherin transcripts ([3]; human metastasis-derived prostate cancer cell lines): increased expression | expression of Snail transcripts ([3]; human prostate cancer cell lines): decreased expression | expression of the metastasis suppressor Ndrgl ([3]; human prostate cancer cells): increased expression | Snail expression (AT6.3 cells [4]; AT6.3 cells): suppressed | expression of E-cadherin transcripts (AT6.3 cells [4]; rat metastasis-derived prostate cancer cell line): increased expression | invasiveness (22RV1 cells): blocked | invasiveness (22RV1-GLI cells): not affected | invasiveness (AT2.1-GLI cells): did not reduce the invasiveness | reduction of invasiveness (AT6.3 cells [5]): approximately nine-fold | prostate regeneration (prostate epithelium; DHT plus cyclopamine 50 mg/kg/day s.c. for 10 days): abolished prostate regeneration; also recorded: completely blocked prostate regeneration
